This is an account of results in US20080153882A1, “Pharmaceutical Composition Comprising Ppar Regulator” (priority 2005, published 2008).

This experiment concerns rat adjuvant arthritis model. Put plainly: Anti-arthritic action in rat adjuvant arthritis model (footpad volume increase suppression). The class given is in vivo. As to conditions: female Lewis rats, oral once a day, Compound No. 1 0.1 mg/kg, Formula (II) 10.0 mg/kg; for Footpad volume increase suppression ratio (%) After 11 days: right hind leg volume on day 11 after start of administration; for Footpad volume increase suppression ratio (%) After 18 days: right hind leg volume on day 18 after start of administration. The method, then: A rat adjuvant arthritis model developing arthritis that is similar to human rheumatoid arthritis was used, and effect of the pharmaceutical composition according to the present invention with respect to the arthritis was evaluated by using footpad volume increase suppression rate as an indicator. Eight-week old female Lewis rats were used in the experiment.
Heat killed Mycobacterium butyricum was ground in an agate mortar, then suspended in dry heat sterilized liquid paraffin so as to have a concentration of 2 mg/ml, and treated with sonication to prepare an adjuvant.
The test compound was suspended or dissolved in a 0.5% tragacanth solution. As the test compound, the compound of Compound No. 1 described in Table 1 was used as the amino alcohol derivative, and the compound of the formula (II) was used as the PPAR regulator.
0.05 ml of the adjuvant prepared in (1) was injected subcutaneously into the footpad of right hind leg of rats, with respect to a control group and a test compound administration group. Here, 5 rats were used for each group. In addition, a normal control group was provided as a group without injection of the adjuvant.
The test compound prepared in (2) was orally administrated once a day in the amount of 5 ml/kg, […]. The control group was administered with only the 0.5% tragacanth solution in a similar manner.
After the start of administration, on day 11 and day 18, the volume of the right hind leg was measured by a leg volume measuring device, and the mean value of the swelling volume was calculated for each group.
The footpad volume increase suppression ratio (%) was calculated by the following equation, and evaluated.
Footpad volume increase suppression ratio (%)=(1-([footpad volume of test compound administration group]-[footpad volume of normal control group])/[footpad volume of control group]−[footpad volume of normal control group]))×100

Consider `COc1ccc2nc(COc3ccc(CC4SC(=O)NC4=O)cc3)n(C)c2c1.Cl` (stereo not shown) [Formula (II), 5-[4-(6-methoxy-1-methyl-1-H-benzimidazol-2-ylmethoxy)benzyl]thiazoline-2,4-dione hydrochloride], for which the “Footpad volume increase suppression ratio (%) After 11 days” value was found to be 24.7% and the “Footpad volume increase suppression ratio (%) After 18 days” value is given as 30.1%.
The matching figures for `Cn1c(CC[C@@](C)(N)CO)ccc1C(=O)CCCCc1ccccc1` [Compound No. 1]: 43.0% and 44.8%.
